Like-named read-outs stand apart in the source and are kept apart here.
Experiments:
[1] = Solubility in aqueous solutions
Source text: Therefore, two different approaches for modifying the sPPp conjugate were investigated to improve its in vivo targetability.

[2] = tested on: EGFR-overexpressing A-431 tumor xenograft; test: Tumor growth delay photodynamic therapy (PDT) studies, single and repeat treatment (Example 4, FIGS. 4 and 5); type: in vivo, athymic NCr nu/nu mice; conditions: single PDT, 60 nmole PPa content per 20 g, 100 J/cm^2 at ~16 hours post-injection
Experimental: All formulations were administered at a dosage equivalent to 60 nmole PPa content per 20 gram body weight in a 200 μl bolus injection via the tail vein (or via retro-orbital injection when tail vein injections were not feasible). A 670 nm diode laser light dose of 100 J/cm^2, delivered at ˜50 mW/cm^2, was given at ˜16 hours post-injection over an area covering the entire tumor surface as well as a 2 to 3 mm border extending beyond the edge of the tumor. The tumor model was the EGFR-overexpressing A-431 tumor xenograft grown in athymic NCr nu/nu mice (5-week old mice from the National Cancer Institute at Frederick, Md.). Data series were plotted so that the time at which each tumor reached ˜150 mm^3 corresponds to 0 days; i.e., the approximate time at which the PDT light dose was administered.
Control experiments were also performed, which included injecting mice with the sPPp formulations but not exposing them to light.

[3] = tested on: A-431 human tumor xenografts; test: Preliminary tumor growth delay studies after phototherapy (Example 3, FIG. 3); type: in vivo, mice
Experimental: Mice were implanted with A-431 tumor xenografts and were administered phototherapy when their tumor sizes reached approximately 150 mm^3. Tumors were then regularly measured to determine the time it took for the tumors to reach four times their initial treatment size. To allow for easier comparisons, tumor growth delay data sets have been aligned so that the 0-day time point corresponds to a tumor volume of 150 mm^3. Diamond, control mice (no PPa or sPPp conjugate; no light), lumped data set, n=6. Squares, mice treated with 60 nmoles surfactant-solubilized free PPa in 2% ethanol/1% TWEEN 80/PBS for a ˜16 hour incubation and treated with 100 J/(cm*cm) light, n=4. Triangles, mice treated with 60 nmoles partially PEG2(20 kDa)ylated (˜63 molar %) sPPp conjugate in PBS for a ˜16 hour incubation and treated with 500 J/(cm*cm) light, n=3.
Preliminary tumor growth delay studies comparing the in vivo phototherapeutic effects of the partially PEG2(20 kDa)ylated sPPp conjugate to the gold standard surfactant-solubilized free PPa solution are shown in FIG. 3. A-431 human tumor xenografts were grown in mice as previously described, and when tumors reached ˜150 mm^3, mice were injected via the tail vein or retro-orbitally with 60 to 80 nmoles PPa content in a bolus volume of approximately 200 microliters. Sixteen hours post-injection, the entire tumor surface along with a 1-2 mm margin of skin around the tumor edge was uniformly irradiated with the expanded beam of a 670 nm laser at an incident fluence rate of ˜50 mW/cm^2. Six mice that received no injections and no irradiations served as a control group. Tumor growth delays resulting from the tumoricidal effects of the phototherapeutic treatments were determined with respect to the control group. For control mice, it took roughly 8.1 days for tumors to quadruple in size from 150 mm^3 to 600 mm^3, and for mice treated with 60 nmoles surfactant-solubilized free PPa and 100 J/cm^2 light, it took only slightly longer, 12.6±2.4 days (i.e., a tumor growth delay of ˜4.5 days compared to the control group). […]

[4] = tested on: A-431 human epidermoid carcinoma tumor xenografts; test: Time-coursed fluorescence imaging in tumor xenograft model with ROI analysis; type: in vivo, athymic nude mice
Experimental: ROI measurements were done using ImageJ software (Rasband 1997-2007). For FIGS. 2A and 2B, image exposure times were 0.65 seconds, whereas image exposure times in FIG. 2C were 4 seconds in order to compensate for the smaller injected dosage of PPa content.
To assess the in vivo delivery characteristics of sPPp conjugate formulations, time-coursed fluorescence imaging studies were performed in a tumor xenograft model grown in athymic nude mice. Tumor xenografts were grown subcutaneously in the left upper chest region using the A-431 human epidermoid carcinoma cell line (American Type Culture Collection, Manassas, Va.), which is ideal for EGFR-targeting studies given that these cells overexpress ˜1×10^6-2.6×10^6 EGFR/cell (Haigler, et al. (1978) Proc. Natl. Acad. Sci. USA 75:3317-21; Mendelsohn (1997) Clin. Cancer Res. 3:2703-7). When tumor sizes reached greater than ˜100 mm^3, mice were imaged pre-injection, and then free PPa or sPPp conjugate formulations that had been sterile filtered through a 0.2 micron membrane were injected via tail vein or retro-orbitally at dosages ranging from ˜10 to ˜80 nmoles PPa content per mouse (mice weighed ˜20 g) in a single bolus volume of approximately 200 microliters. A series of post-injection images were then taken over a period of time until mouse fluorescence levels approached pre-injection baseline levels. Images were acquired of the ventral surface of the animals using a custom built surface-weighted fluorescence imager with a 670 nm laser for excitation and a 685 nm long-pass emission filter for detection (Pogue, et al. (2004) Technol. Cancer Res. Treat. 3:15-21). […]
As a quantitative measure of the tumor contrast generated by the surfactant-solubilized free PPa solution and the different sPPp conjugate formulations, region of interest (ROI) mean pixel values of the tumor area and control adjacent chest area were measured from the imaging data sets.

[5] = 60 nmoles, 100 J/cm^2 light, 16 hours post-injection

Row | Compound | solubility in aqueous solutions [1] | delay in tumor growth compared to untreated control mice [2] | time for tumors to quadruple in size from 150 mm^3 to 600 mm^3 [3, 5] [days] | tumor growth delay compared to the control group [3, 5] [days] | lethality ([3]; irradiations performed immediately after injection) | peak tumor area to adjacent chest area mean pixel value ratio (tumor contrast) ([4]; 60 nmoles PPa in 2% ethanol/1% TWEEN 80/PBS, at ~16 hours post-injection, FIG. 2A) | clearance from the circulation ([4]; A-431 tumor-bearing mice, single bolus injection, fluorescence imaging) | tumor fluorescence at time of peak tumor contrast ([4]; FIG. 2) | solubility in aqueous solutions ([1]; aqueous solutions)
1 | C=CC1=C(C)c2cc3[nH]c(c4c5nc(cc6[nH]c(cc1n2)c(C)c6CC)C(C)=C5C(=O)C4)C(CCC(=O)NC(CC(=O)O)C(=O)NCCCCC(N)C(=O)NCCOCCOCCOCCOCCOCCOCCOCCOCCOCCOCCOCCOCCC(=O)NCCOCCOCCOCCOCCOCCOCCOCCOCCOCCOCCOCCOCCC(N)=O)C3C (stereo not drawn) [sPPp] | highly soluble and readily dissolved in aqueous solutions | – | – | – | – | – | – | – | –
2 | pyropheophorbide-a [free PPa] | – | no significant delay in tumor growth | 12.6 ± 2.4 | ~4.5 | very high incidence of lethality | ~1.5 | cleared very rapidly from the circulation via the hepatobiliary system | already approaching pre-injection fluorescence levels | required potentially harmful solubilizers to prevent the formation of large insoluble aggregates

— US20100297017A1, “Method for Synthesizing and Using Pegylated Peptide-Photoactive Chromophore Conjugates and Micellular Formulations Thereof” (priority 2008, published 2010)
